According to patent US7473683B2, “Nonpolar thymidine analogs” (The Board of Trustees of the Leland Stanford Junior …, priority 2005, dated 2009):

Columns and labels:
[1] = test system: DNA Pol I (Klenow fragment, exo-); test: steady-state kinetics of single nucleotide insertions, incoming nucleotide analogues (dNTP/dXTP); assay type: biochemical, E. coli; conditions: for rel. efficiency: relative to insertion of dTTP opposite A
Procedure: (§1) In vitro steady-state kinetics. As polymerase substrates we used 28 mer/23 mer template-primer duplexes having the sequence (5′-ACT GXT CTCCCTATAGTGAGTCGTATTA [SEQ ID NO:1])·(5′-TAATACGACTCACTATAGGGAGA [SEQ ID NO:2]). Kinetics were measured at 37° C. in a buffer containing 10 mM Mg^2+. The primer was 5′ end-labeled and was extended by the polymerase in the presence of a single dNTP species over varied concentration and time. Products of single nucleotide insertions were resolved from unreacted primer by 20% denaturing gel electrophoresis, and were quantitated by autoradiography. Details of the kinetics experiments are given in the Supporting Data.
(§2) We chose DNA polymerase I (Klenow fragment, exonuclease-deficient) as an ideal candidate for initial study, as it is enzymatically well-characterized among replicative enzymes, and yet is relatively small and acts as a single subunit. We carried out kinetics studies of single nucleotide insertions in the steady state, using a gel electrophoresis-based assay.
(§3) Data for single nucleotide insertion kinetics in the steady-state. The enzyme was the Klenow fragment of DNA pol I from E. coli (exonuclease deficient). Methods are as described above.

[2] = test system: DNA Pol I (Klenow fragment, exo-); test: steady-state kinetics of single nucleotide insertions, thymidine analogues in the template; assay type: biochemical, E. coli; conditions: varied-size template nucleoside mimics; insertion of dATP vs mismatch
Procedure: as §1, §2, §3

[3] = dNTP inserted opposite template base A, 37° C.
[4] = dNTP inserted opposite template base A, 37° C., 10 mM MgCl2, pH 7.5, normalized to lowest enzyme concentration
[5] = dNTP inserted opposite template base A
[6] = dNTP inserted opposite template base C, 37° C.
[7] = dNTP inserted opposite template base C, 37° C., 10 mM MgCl2, pH 7.5, normalized to lowest enzyme concentration
[8] = dNTP inserted opposite template base C
[9] = dNTP inserted opposite template base G, 37° C.
[10] = dNTP inserted opposite template base G, 37° C., 10 mM MgCl2, pH 7.5, normalized to lowest enzyme concentration
[11] = dNTP inserted opposite template base G
[12] = dNTP inserted opposite template base T, 37° C.
[13] = dNTP inserted opposite template base T, 37° C., 10 mM MgCl2, pH 7.5, normalized to lowest enzyme concentration
[14] = dNTP inserted opposite template base T
[15] = Example 4: incorporating dXTP opposite adenine in a DNA template

## Cc1cc(C2CC(O)C(COP(=O)(O)OP(=O)(O)OP(=O)(O)O)O2)c(Br)cc1Br (stereo not drawn) [dBTP]
[1]; [3]
  Km: 23 ± 6 µM
[1]; [4]
  Vmax: 13 ± 2 % · min^−1
[1]; [5]
  rel. efficiency: 3.6 × 10^−2
[1]; [6]
  Km: 74 ± 22 µM
[1]; [7]
  Vmax: 0.016 ± 0.001 % · min^−1
[1]; [8]
  rel. efficiency: 1.4 × 10^−5
[1]; [9]
  Km: 50 ± 10 µM
[1]; [10]
  Vmax: 0.0094 ± 0.0004 % · min^−1
[1]; [11]
  rel. efficiency: 1.2 × 10^−5
[1]; [12]
  Km: 38 ± 21 µM
[1]; [13]
  Vmax: 0.8 ± 0.16 % · min^−1
[1]; [14]
  rel. efficiency: 1.3 × 10^−3

## Cc1cc(C2CC(O)C(COP(=O)(O)OP(=O)(O)OP(=O)(O)O)O2)c(F)cc1F (stereo not drawn) [dFTP, reference compound]
[1]; [3]
  Km: 29 ± 10 µM
[1]; [4]
  Vmax: 2.9 ± 0.1 % · min^−1
[1]; [5]
  rel. efficiency: 6.3 × 10^−3
[1]; [6]
  Km: 200 ± 110 µM
[1]; [7]
  Vmax: 0.012 ± 0.004 % · min^−1
[1]; [8]
  rel. efficiency: 3.8 × 10^−6
[1]; [9]
  Km: 300 ± 120 µM
[1]; [10]
  Vmax: 0.0067 ± 0.0017 % · min^−1
[1]; [11]
  rel. efficiency: 1.4 × 10^−6
[1]; [12]
  Km: 37 ± 15 µM
[1]; [13]
  Vmax: 0.0066 ± 0.0010 % · min^−1
[1]; [14]
  rel. efficiency: 1.1 × 10^−5

## Cc1cccc(C2CC(O)C(COP(=O)(O)OP(=O)(O)OP(=O)(O)O)O2)c1 (stereo not drawn) [dHTP]
[1]; [3]
  Km: 110 ± 20 µM
[1]; [4]
  Vmax: 0.11 ± 0.20 % · min^−1
[1]; [5]
  rel. efficiency: 6.3 × 10^−5
[1]; [6]
  Km: 310 ± 170 µM
[1]; [7]
  Vmax: 0.0067 ± 0.0023 % · min^−1
[1]; [8]
  rel. efficiency: 1.4 × 10^−6
[1]; [9]
  Km: 200 ± 90 µM
[1]; [10]
  Vmax: 0.0065 ± 0.0016 % · min^−1
[1]; [11]
  rel. efficiency: 2.0 × 10^−6
[1]; [12]
  Km: 59 ± 27 µM
[1]; [13]
  Vmax: 0.0046 ± 0.0011 % · min^−1
[1]; [14]
  rel. efficiency: 4.9 × 10^−6

## Cc1cccc(C2CC(O)C(CO)O2)c1 (stereo not drawn) [dH]
[2]
  fidelity (efficiency of correct T analog:A pair divided by efficiency of the most efficient mismatch): 45

## Cc1cc(C2CC(O)C(COP(=O)(O)OP(=O)(O)OP(=O)(O)O)O2)c(I)cc1I (stereo not drawn) [dITP]
[1]; [3]
  Km: 18 ± 2 µM
[1]; [4]
  Vmax: 1.8 ± 0.1 % · min^−1
[1]; [5]
  rel. efficiency: 6.3 × 10^−3
[1]; [6]
  Km: 23 ± 1 µM
[1]; [7]
  Vmax: 0.0023 ± 0.0004 % · min^−1
[1]; [8]
  rel. efficiency: 6.3 × 10^−6
[1]; [9]
  Km: 43 ± 7 µM
[1]; [10]
  Vmax: 0.0020 ± 0.0001 % · min^−1
[1]; [11]
  rel. efficiency: 2.9 × 10^−6
[1]; [12]
  Km: 37 ± 7 µM
[1]; [13]
  Vmax: 0.23 ± 0.02 % · min^−1
[1]; [14]
  rel. efficiency: 3.9 × 10^−4

## Cc1cc(C2CC(O)C(COP(=O)(O)OP(=O)(O)OP(=O)(O)O)O2)c(Cl)cc1Cl (stereo not drawn) [dLTP]
[1]; dNTP analog inserted opposite adenine
  efficiency lower than for insertion of natural dTTP: 7 fold
[1]; [3]
  Km: 18 ± 5 µM
[1]; [4]
  Vmax: 39 ± 4 % · min^−1
[1]; [5]
  rel. efficiency: 1.4 × 10^−1
[1]; [6]
  Km: 160 ± 66 µM
[1]; [7]
  Vmax: 0.050 ± 0.010 % · min^−1
[1]; [8]
  rel. efficiency: 1.9 × 10^−5
[1]; [9]
  Km: 110 ± 30 µM
[1]; [10]
  Vmax: 0.035 ± 0.004 % · min^−1
[1]; [11]
  rel. efficiency: 2.0 × 10^−5
[1]; [12]
  Km: 62 ± 21 µM
[1]; [13]
  Vmax: 0.54 ± 0.10 % · min^−1
[1]; [14]
  rel. efficiency: 5.4 × 10^−4

## Cc1cn([C@H]2C[C@H](O)[C@@H](COP(=O)(O)OP(=O)(O)OP(=O)(O)O)O2)c(=O)[nH]c1=O [dTTP, reference compound]
[1]; [15]
  Km: 1.56 ± 1 µM
  Vmax: 30.70 ± 12.0
  efficiency: (2.29 ± 0.9) × 10^7
[1]; Example 4: incorporating dXTP opposite adenine in a DNA template, dTTP = 1
  Rel. efficiency: 1
[1]; [3]
  Km: 1.9 ± 0.4 µM
[1]; [4]
  Vmax: 30 ± 3 % · min^−1
[1]; [5]
  rel. efficiency: 1
[1]; [6]
  Km: 510 ± 400 µM
[1]; [7]
  Vmax: 0.067 ± 0.040 % · min^−1
[1]; [8]
  rel. efficiency: 6.3 × 10^−6
[1]; [9]
  Km: 140 ± 86 µM
[1]; [10]
  Vmax: 0.42 ± 0.18 % · min^−1
[1]; [11]
  rel. efficiency: 2.5 × 10^−4
[1]; [12]
  Km: 63 ± 18 µM
[1]; [13]
  Vmax: 0.010 ± 0.002 % · min^−1
[1]; [14]
  rel. efficiency: 1.0 × 10^−5
